Measured values published in patent US11472806B2, “Substituted heterocyclic compounds as allosteric modulators of group II metabotropic glutamate receptors” (Domain Therapeutics, priority 2017, dated 2022).
pEC50: −log10 of the molar value. Structures can show the parent of a compound that is named as a salt.

Target: T1, human mGluR3 (hmGluR3) (Homo sapiens, UniProt Q14832)
T1 construct: expressed in transfected cells; host or cells: HEK-293 cells, transient co-transfection by electroporation
Experiment: Human mGluR3 positive allosteric modulator evaluation using Ca++ functional assay
Format: cell-based
Details: hmGluR3 transiently over-expressed in HEK-293 cells; cells stimulated by an EC50 glutamate concentration; intracellular Ca2+ (Fluo4AM, FLIPR Tetra)
Method: Example 89: Human mGluR3 Positive Allosteric Modulator Evaluation Using Ca++ Functional Assay
Compounds of the present invention were tested successively for their agonist and positive allosteric modulator activities on human mGluR3 (hmGluR3) transiently over-expressed in HEK-293 cells. Compounds exert agonist activity if they are able to activate hmGluR3 by themselves, i.e., in absence of the endogenous agonist glutamate; and they exert positive allosteric modulator activity if they increase the action of the endogenous agonist glutamate.
Cell Culture and Transfection:
HEK-293 cells were maintained in Modified Eagle's Medium supplemented with 10% Foetal Calf Serum, 1% Penicillin/Streptomycin and 1% non-essential amino acids at 37° C./5% CO2. Cells were co-transfected by electroporation with four DNA plasmids encoding hmGluR3, a chimeric G protein allowing redirection of the activation signal toward intracellular calcium pathway, and two glutamate transporters so as to decrease extracellular glutamate levels and avoid receptor desensitization (Brabet I et al., Neuropharmacology 37(8), 1043-51, 1998). After transfection, cells were seeded in 75 cm^2 culture flasks, and cultured for 24 h.
Calcium Assa EC50 determination:
Receptor activity was detected by changes in intracellular calcium measured using the fluorescent Ca^2+ sensitive dye, Fluo4AM (Molecular Probes).
The day of the assay, medium was aspirated and replaced during 3 hrs by freshly prepared buffer B (HBSS 1×, Hepes 20 mM, MgSO4-7H2O 1 mM, Na2CO3 3.3 mM, CaCl2-2H2O 1.3 mM, 0.5% BSA, Probenecid 2.5 mM). Then, cells were loaded at 37° C./5% CO2 for 1.5 hrs with buffer B containing 1 μM Fluo4AM, 0.1 mg/mL Pluronic Acid, 7 μg/mL Glutamate Pyruvate Transaminase and 2 mM sodium pyruvate. Afterwards cells were washed with buffer B. Cells were then detached from the 75 cm^2 culture flasks with Accutase® (5 min incubation at 37° C.), centrifuged (5 min at 840 rpm), resuspended in buffer B and finally seeded at a density of 30,000 cells/well in black-walled clear-bottom 384-well plates. Addition of compounds on cells and intracellular Ca^2+ measurements (excitation 485 nm, emission 525 nm) were performed by the fluorescence microplate reader FLIPR Tetra (Molecular Devices).
Agonist and positive allosteric modulator activities of compounds were consecutively evaluated on the same cells plate. Agonist activity was first tested during 10 min with the addition of compound alone on the cells. Then, the cells were stimulated by an EC50 glutamate concentration and fluorescence was recorded for additional 3 min. EC50 glutamate concentration is the concentration giving 50% of the maximal glutamate response. Agonist and/or positive allosteric modulator activity(ies) were evaluated in comparison to basal signal or signal evoked by EC50 glutamate concentration alone, respectively.
For potency determination, a dose-response test was performed using 20 concentrations of each compound of the invention. Dose-response curves were fitted using the sigmoïdal dose-response (variable slope) analysis in XLfit Scientific Curve Fitting for Excel (IDBS). EC50 of agonist/EC50 of positive allosteric modulator activity(ies) were calculated. Dose-response experiments were all performed in duplicate, two times independently.

T1 sequence (Q14832 23-879): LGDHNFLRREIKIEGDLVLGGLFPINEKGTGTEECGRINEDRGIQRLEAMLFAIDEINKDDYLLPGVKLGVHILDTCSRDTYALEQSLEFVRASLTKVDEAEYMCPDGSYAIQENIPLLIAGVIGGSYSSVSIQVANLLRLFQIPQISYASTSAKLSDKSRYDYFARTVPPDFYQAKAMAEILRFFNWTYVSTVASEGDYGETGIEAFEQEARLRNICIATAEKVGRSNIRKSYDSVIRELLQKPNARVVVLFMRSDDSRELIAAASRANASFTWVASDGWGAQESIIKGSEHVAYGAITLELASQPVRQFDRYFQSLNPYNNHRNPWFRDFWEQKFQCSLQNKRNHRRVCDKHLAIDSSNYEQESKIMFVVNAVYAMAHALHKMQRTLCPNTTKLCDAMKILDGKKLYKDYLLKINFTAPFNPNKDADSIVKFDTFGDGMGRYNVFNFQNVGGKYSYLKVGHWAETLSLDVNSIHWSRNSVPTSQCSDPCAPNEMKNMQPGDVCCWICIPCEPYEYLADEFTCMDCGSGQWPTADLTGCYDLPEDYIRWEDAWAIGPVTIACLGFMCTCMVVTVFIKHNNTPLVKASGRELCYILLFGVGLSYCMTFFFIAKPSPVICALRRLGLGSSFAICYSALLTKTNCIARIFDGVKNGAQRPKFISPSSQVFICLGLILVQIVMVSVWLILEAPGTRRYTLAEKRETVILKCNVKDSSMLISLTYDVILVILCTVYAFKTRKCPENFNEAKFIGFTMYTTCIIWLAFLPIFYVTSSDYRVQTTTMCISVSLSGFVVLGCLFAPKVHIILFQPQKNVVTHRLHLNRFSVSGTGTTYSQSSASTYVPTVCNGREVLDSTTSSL

Row | Structure (SMILES) | pEC50
1 | COc1ccc2c(n1)C(=O)N(C)Cc1ccc(-c3cccnc3C)cc1-2 [Example 36, 3-Methoxy-6-methyl-10-(2-methyl-pyridin-3-yl)-6,7-dihydro-4,6-diaza-dibenzo[a, c]cyclohepten-5-one] | 6.00 to 7.00
2 | Cc1ncccc1-c1ccc2c(c1)-c1ccc(-c3ccnn3C)cc1C(=O)N(C)C21CC1 [Example 23, 3-(2-Methyl-2H-pyrazol-3-yl)-10-(2-methyl-pyridin-3-yl)-6-methyl-6,7-dihydro-spiro[dibenzo[c, e]azepine-7,1′-cyclopropan]-5-one] | 6.00 to 7.00
3 | Cc1ncccc1-c1ccc2c(c1)-c1cccnc1C(=O)N(C)C2 [Example 26, 6-Methyl-10-(2-methyl-pyridin-3-yl)-6,7-dihydro-4,6-diaza-dibenzo[a, c]cyclohepten-5-one] | 6.00 to 7.00
4 | Cc1cnc2c(c1)-c1cc(-c3ccc(F)nc3)ccc1CN(C)C2=O [Example 44, 10-(6-Fluoro-pyridin-3-yl)-2,6-dimethyl-6,7-dihydro-4,6-diaza-dibenzo[a, c]cyclohepten-5-one] | 6.00 to 7.00
5 | Cc1ncccc1-c1ccc2c(c1)-c1ccc(Cl)cc1C(=O)N(C)C21CC1 [Example 22, 3-Chloro-10-(2-methyl-pyridin-3-yl)-6-methyl-6,7-dihydro-spiro[dibenzo[c, e]azepine-7,1′-cyclopropan]-5-one] | 5.00 to 6.00
6 | CN1Cc2ccc(-c3ccc(F)cn3)cc2-c2cccnc2C1=O [Example 28, 10-(5-Fluoro-pyridin-2-yl)-6-methyl-6,7-dihydro-4,6-diaza-dibenzo[a, c]cyclohepten-5-one] | 6.00 to 7.00
7 | Cc1ncccc1-c1ccc2c(c1)-c1ccsc1C(=O)N(C)C2 [Example 55, 5-Methyl-9-(2-methyl-pyridin-3-yl)-5,6-dihydro-3-thia-5-aza-benzo[e]azulen-4-one] | 6.00 to 7.00
8 | CN1Cc2ccc(-c3ccc(F)nc3)cc2-c2ccc(F)nc2C1=O [Example 31, 3-Fluoro-10-(6-fluoro-pyridin-3-yl)-6-methyl-6,7-dihydro-4,6-diaza-dibenzo[a, c]cyclohepten-5-one] | 5.00 to 6.00
9 | COc1cnc2c(c1)-c1cc(-c3cccnc3C)ccc1CN(C)C2=O [Example 48, 2-Methoxy-6-methyl-10-(2-methyl-pyridin-3-yl)-6,7-dihydro-4,6-diaza-dibenzo[a, c]cyclohepten-5-one] | 6.00 to 7.00
10 | Cc1ccc2c(n1)C(=O)N(C)Cc1ccc(-c3cccnc3C)cc1-2 [Example 41, 3,6-Dimethyl-10-(2-methyl-pyridin-3-yl)-6,7-dihydro-4,6-diaza-dibenzo[a, c]cyclohepten-5-one] | 6.00 to 7.00
11 | Cc1cnc2c(c1)-c1cc(-c3cccnc3C)ccc1CN(C)C2=O [Example 43, 2,6-Dimethyl-10-(2-methyl-pyridin-3-yl)-6,7-dihydro-4,6-diaza-dibenzo[a, c]cyclohepten-5-one] | 5.00 to 6.00
12 | CN1Cc2ccc(-c3cccc(C#N)c3)cc2-c2cccnc2C1=O [Example 25, 3-(6-Methyl-5-oxo-6,7-dihydro-5H-4,6-diaza-dibenzo[a,c]cyclohepten-10-yl)-benzonitrile] | 6.00 to 7.00

Further lines, results first:

Row | pEC50 | Structure (SMILES)
13 | 5.00 to 6.00 | Cc1ncccc1-c1ccc2c(c1)-c1cn(C)nc1C(=O)N(C)C2 [Example 68, 2,5-Dimethyl-9-(2-methyl-pyridin-3-yl)-5,6-dihydro-2H-2,3,5-triaza-benzo[e]azulen-4-one]
14 | 6.00 to 7.00 | COc1ccc2c(n1)C(=O)N(C)Cc1ccc(-c3ccc(F)cn3)cc1-2 [Example 34, 10-(5-Fluoro-pyridin-2-yl)-3-methoxy-6-methyl-6,7-dihydro-4,6-diaza-dibenzo[a, c]cyclohepten-5-one]
15 | < 5.00 | CN1Cc2ncc(-c3cccc(C#N)c3)cc2-n2cccc2C1=O [Example 11, 3-(5-Methyl-4-oxo-5,6-dihydro-4H-5,7,1 b-triaza-benzo[e]azulen-9-yl)-benzonitrile]
16 | 6.00 to 7.00 | Cc1ncccc1-c1ccc2c(c1)-n1cccc1C(=O)N(C)C21CCC1 [Example 17, 9-(2-Methyl-pyridin-3-yl)-5-methyl-5,6-dihydro-spiro[benzo[f]pyrrolo[, 2-a][1,4]diazepine-6,1′-cyclobutan]-4-one]
17 | 6.00 to 7.00 | Cc1ccc2c(n1)C(=O)N(C)Cc1ccc(-c3ccc(F)nc3)cc1-2 [Example 39, 10-(6-Fluoro-pyridin-3-yl)-3,6-dimethyl-6,7-dihydro-4,6-diaza-dibenzo[a, c]cyclohepten-5-one]
18 | 6.00 to 7.00 | Cc1ncccc1-c1ccc2c(c1)-c1cc[nH]c1C(=O)N(C)C2 [Example 59, 5-Methyl-9-(2-methyl-pyridin-3-yl)-5,6-dihydro-3H-3,5-diaza-benzo[e]azulen-4-one]
19 | 5.00 to 6.00 | Cc1ncccc1-c1cnc2c(n1)-n1cccc1C(=O)N(C)C2 [Example 7, 5-Methyl-9-(2-methyl-pyridin-3-yl)-5,6-dihydro-5,7,10,10b-tetraaza-benzo[e]azulen-4-one, dihydrochloride]
20 | 6.00 to 7.00 | COCn1cc2c(n1)C(=O)N(C)Cc1ccc(-c3cccnc3C)cc1-2 [Example 65, 2-Methoxymethyl-5-methyl-9-(2-methyl-pyridin-3-yl)-5,6-dihydro-2H-2,3,5-triaza-benzo[e]azulen-4-one]
21 | < 5.00 | Cc1ncccc1-c1cnc2c(c1)-n1cccc1C(=O)N(C)C2 [Example 6, 5-Methyl-9-(2-methyl-pyridin-3-yl)-5,6-dihydro-5,7,10b-triaza-benzo[e]azulen-4-one, dihydrochloride]
22 | 5.00 to 6.00 | CN1Cc2ccc(-c3ccc(F)cn3)cc2-c2ccc(F)nc2C1=O [Example 32, 3-Fluoro-10-(5-fluoro-pyridin-2-yl)-6-methyl-6,7-dihydro-4,6-diaza-dibenzo[a, c]cyclohepten-5-one]
23 | 6.00 to 7.00 | CN1Cc2ccc(-c3ccc(F)nc3)cc2-c2cc(F)cnc2C1=O [Example 47, 2-Fluoro-10-(6-fluoro-pyridin-3-yl)-6-methyl-6,7-dihydro-4,6-diaza-dibenzo[a, c]cyclohepten-5-one]
24 | 6.00 to 7.00 | Cc1ncccc1-c1ccc2c(c1)-c1ccccc1C(=O)N(C)C21CC1 [Example 21, 10-(2-Methyl-pyridin-3-yl)-6-methyl-6,7-dihydro-spiro[dibenzo[c,e]azepine-7,1′-cyclopropan]-5-one, hydrochloride]
25 | 5.00 to 6.00 | Cc1ncccc1-c1cc2c(cn1)C1(CC1)N(C)C(=O)c1cccn1-2 [Example 3, 2′-(2-Methyl-pyridin-3-yl)-6′-methylspiro[cyclopropane-1,5′-pyrido[3,4-f]pyrrolo[1,2-a][1,4]diazepin]-7′(6 ^1H)-one]
26 | 6.00 to 7.00 | Cc1ccc2c(n1)C(=O)N(C)Cc1ccc(-c3ccc(F)cn3)cc1-2 [Example 40, 10-(5-Fluoro-pyridin-2-yl)-3,6-dimethyl-6,7-dihydro-4,6-diaza-dibenzo[a, c]cyclohepten-5-one]
27 | 5.00 to 6.00 | Cc1ncccc1-c1ccc2c(c1)-c1cc(F)cnc1C(=O)N(C)C2 [Example 46, 2-Fluoro-6-methyl-10-(2-methyl-pyridin-3-yl)-6,7-dihydro-4,6-diaza-dibenzo[a, c]cyclohepten-5-one]
28 | 6.00 to 7.00 | CN1Cc2ccc(-c3ccc(F)nc3)cc2-c2cccnc2C1=O [Example 27, 10-(6-Fluoro-pyridin-3-yl)-6-methyl-6,7-dihydro-4,6-diaza-dibenzo[a, c]cyclohepten-5-one]
